Consider 69 compounds from PubChem BioAssay AID179 (DTP/NCI, 2004).

Activity calls are given as the source filed them.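 How the source made its calls: active means compounds giving half or more protection of infected cells from virus-caused growth loss, again on retest; inactive means the rest.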 *1 amine or outer side, *2 acyl side, *3 side chain or, on linkers, in order; H or OH if unused. Where a SMILES comes first, the peptide text is derived from it. [ ]: non-standard residue; d: D form. The star is where a group is joined. ξ: configuration not given here. X15 = O=C([C@H]1CCC[C@H]1N[*:1])[*:2]; ξW = NC(Cc1c[nH]c2ccccc12)C(=O)O; ξF = NC(Cc1ccccc1)C(=O)O; Boc = CC(C)(C)OC(=O)*; ξK = NCCCCC(N)C(=O)O; ξT = CC(O)C(N)C(=O)O; tBu = CC(C)(C)* Bounds are passed on as bounds.

The subject of the experiment is CEM cells HIV-1 protection, formazan growth assay. The experiment is described as follows: NCI AIDS Antiviral Assay. The note with it: for IC50: measured here: growth of uninfected CEM cells. In short, it runs like this:
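Screen of anti-HIV-1 activity in human CEM cells using a formazan-based growth measurement at five drug concentrations. Hits with 50% or greater protection were repeated, and confirmation required reproducible complete protection.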

On to `CSc1n[nH]c(NC(=O)c2ccc(Cl)cc2)n1`, for which the EC50 – broadly, the midpoint of the concentration-response curve – is over 19.5 µM and the IC50 (commonly the midpoint of a concentration-inhibition curve) was over 19.5 µM.

`COc1ccc2c(-c3cc4ccccc4o3)cc(=O)oc2c1`: the result was inactive.

As for `COc1ccc(/C=C2\NC(=S)N(/C=C3\C(=O)Oc4ccccc4C3=O)C2=O)cc1`, the EC50 was over 200 µM and the IC50 was 148 µM.

Consider `c1ccn2nnnc2c1`, for which the EC50 is over 2090 µM and the IC50 is over 2090 µM.

With `O=C(O)P(=O)(O)O`, the EC50 was over 7940 µM and the IC50 was determined as 5750 µM.

For `CC(C)(C)C(=O)Oc1ccc(/C=C/C(=O)c2ccc(OC(=O)C(C)(C)C)cc2)cc1`, the EC50 is over 200 µM and the IC50 was found to be 38 µM.

As to `N#Cc1cc([N+](=O)[O-])ccc1NC(=O)C(=O)C(C(=O)/C=C/c1ccccc1)C1OC(=O)c2ccccc21` (configuration not stated), the EC50 is over 191 µM and the IC50 is over 191 µM.

`CCCCOCn1c(=O)[nH]c(=O)c2cc(Br)ccc21`: the EC50 was over 200 µM and the IC50 is 93.3 µM.

Take `Cn1cnc(=S)c2ccccc21`: the EC50 was over 200 µM and the IC50 was over 200 µM.

With `CC(C)(C)c1ccc(O)c(C(O)c2ccccn2)c1` (configuration not stated), the EC50 was over 200 µM and the IC50 came to 81.3 µM.

Consider `Cc1cc(NS(=O)(=O)c2ccc(N=Nc3cc(N=Nc4ccc(S(=O)(=O)Nc5cc(C)nc(C)n5)cc4)c4c(NC(=O)C(Cl)Cl)cccc4c3OC(=O)C(Cl)Cl)cc2)nc(C)n1` (tested in a mixture with another compound), for which the result was inactive.

As to `COc1cc2c(cc1C1=NC(C)(C)CO1)OCO2`, the EC50 was over 1000 µM and the 50% inhibitory concentration (IC50) is over 1000 µM.

As to `O=c1[nH][nH]c(=O)c2nc(Nc3ccccc3)ncc12`, the EC50 is over 28.2 µM and the IC50 is over 28.2 µM.

On to `CCOC(=O)C1=CN/C(=C(/C)C(=O)OC)SC1C(=O)OCC` (configuration not stated), for which the EC50 was over 200 µM and the IC50 is 37.2 µM.

In the case of `CCCCCCCCCCCCNC(=S)OCCCC`, the outcome was inactive.

In the case of `Nc1c(S(=O)(=O)O)[nH]c(=O)[nH]c1=O`, the EC50 is over 200 µM and the IC50 was over 200 µM.

As for `CC(OC(C)(C)C)C1NC(=O)C(CCCCNC(=O)OC(C)(C)C)NC(=O)C(Cc2c[nH]c3ccccc23)NC(=O)C(Cc2ccccc2)NC(=O)[C@H]2CCC[C@H]2NC(=O)C(Cc2ccccc2)NC1=O` (some centres not stated) (cyclo([X15][ξF][ξW][ξK](Boc)[ξT](tBu)[ξF])), the result was inactive.

On to `O=C(Nc1cccc(O)c1)C(=O)C(C(=O)c1ccc(Cl)c(Cl)c1)C1OC(=O)c2ccccc21` (configuration not stated), for which the EC50 was over 141 µM and the IC50 was 64.6 µM.

As to `O=c1[nH]ncc2c1nnn2C1CCC(CO)O1` (configuration not stated), the EC50 was over 200 µM and the IC50 was over 200 µM.

In the case of `COc1c(C)c(O)c2c(=O)cc(-c3ccccc3)oc2c1C`, the EC50 is over 63.1 µM and the half-maximal inhibitory concentration (IC50) was over 63.1 µM.

Turning to `CCCCCC[C@@H]1CCC2C(CO)[C@@H](O)CC[C@@H]2C1` (some centres not stated), the EC50 was over 37.2 µM and the IC50 is 28.2 µM.

Regarding `CC1C(c2ccc(N(C)C)cc2)c2cc3c(cc2OC1N1CCCC1)OCO3` (configuration not stated), the EC50 is over 100 µM and the IC50 is 17 µM.

For `CN1C(=O)n2c(nc3ccccc32)C(N=[N+]=[N-])(N=[N+]=[N-])C1=O` (configuration not stated), the EC50 was 70.8 µM and the IC50 is over 100 µM.

Take `C[C@H](O)C(=O)SC[C@H](NC(=O)CC[C@@H](N)C(=O)O)C(=O)NCC(=O)O`: the EC50 is over 200 µM and the IC50 is over 200 µM.

As to `CN1CCCC2[C@@H]3CCC4c5nonc5CC[C@]4(C)C3CC[C@@]21C` (some centres not stated), the EC50 was over 55 µM and the concentration for half-maximal inhibition (IC50) is over 55 µM.

Consider `COc1ccc(C(O)CC(O)(C(F)(F)F)C(F)(F)F)cc1` (configuration not stated), for which the EC50 is over 200 µM and the concentration for half-maximal inhibition (IC50) is over 100 µM.

For `O=Cc1[nH]c(=O)[nH]c(=O)c1CCl`, the EC50 was over 200 µM and the half-maximal inhibitory concentration (IC50) was determined as 35.5 µM.

In the case of `CCOC(=O)C(C(=O)OCC)c1ccc([N+](=O)[O-])o1`, the EC50 is over 132 µM and the IC50 was 1.86 µM.

Take `c1ccc(SC2CC[C@H]3CCCC[C@H]3O2)cc1` (some centres not stated): the result was inactive.

For `O=S(O)CCCCSSCCCCSSCCCCS(=O)O`, the result was inactive.

Regarding `O=c1c2ccccc2oc2cc(Br)ccc12`, the EC50 was over 26.3 µM and the IC50 is over 26.3 µM.

Turning to `COc1cc(C(C#N)NNC(=O)c2ccccc2O)ccc1O` (configuration not stated), the EC50 is over 5.75 µM and the IC50 is 0.427 µM.

For `O=C(CC(=O)Nc1ccc(C(=O)O)cc1)Nc1ccc(C(=O)O)cc1`, the EC50 was over 200 µM and the IC50 was over 200 µM.

As to `Cc1cc(=O)oc2c(C3=NN(C=O)C(c4ccccc4)C3)c(O)ccc12` (configuration not stated), the result was inactive.

Consider `COc1cc2c(c(C3(O)C(=O)N(C)c4ccccc43)c1OC)OCO2` (configuration not stated), for which the EC50 is over 200 µM and the IC50 was over 200 µM.

Regarding `CC(C)(CCCCC(C)(C)NC1=NCCO1)NC1=NCCO1`, the EC50 is over 200 µM and the IC50 is 77.6 µM.

As for `S=C(N/N=C/c1cccc2ccccc12)Nc1c(Cl)cccc1Cl`, the EC50 was over 200 µM and the half-inhibitory concentration (IC50) is 102 µM.

Regarding `C/C(CC(=O)Nc1ccc([N+](=O)[O-])cc1)=N/N=C(N)N`, the EC50 was over 67.6 µM and the IC50 was over 67.6 µM.

As to `COc1nc(N=P(c2ccccc2)(c2ccccc2)c2ccccc2)cc(=O)n1C`, the result was inactive.

On to `N#C/C(=C\c1c(Cl)cccc1Cl)c1nc2ccccc2[nH]1`, for which the EC50 was over 200 µM and the IC50 is 24.5 µM.

`C=CCP(=O)(c1ccccc1)c1ccccc1`: the EC50 is 0.0631 µM and the half-maximal inhibitory concentration (IC50) is over 200 µM.

For `Cc1cc2[n-]c1/C=c1\[n-]/c(c(CCC(=O)O)c1C)=C\c1[n-]c(c(C)c1CCC(=O)O)/C=c1/cc(C)/c([n-]1)=C/2.[Ni]`, the EC50 was over 9.12 µM.

In the case of `CC1(C)CC(=O)c2c(oc3cc(O)c(O)cc23)C1`, the outcome was inactive.

On to `Nc1nc2ncc(CNc3ccc(C(=O)NC(CCC(=O)NC(CCC(=O)NC(CCC(=O)NC(CCC(=O)NC(CCC(=O)O)C(=O)O)C(=O)O)C(=O)O)C(=O)O)C(=O)O)cc3)nc2c(=O)[nH]1` (configuration not stated), for which the EC50 is over 100 µM and the IC50 was over 100 µM.

Take `CC(C)CCC[C@@H](C)C1CCC2[C@@H]3CC=C4C[C@@H](OP(=O)([O-])OCC[N+](C)(C)C)CC[C@]4(C)C3CC[C@@]21C` (some centres not stated): the EC50 is over 39.8 µM and the IC50 was 20.4 µM.

In the case of `NC(CCCCNC(=O)CNC(=O)OCc1ccccc1)C(=O)NC(CCCCNC(=O)CNC(=O)OCc1ccccc1)C(=O)NC(CCCCNC(=O)CNC(=O)OCc1ccccc1)C(=O)NC(CCCCNC(=O)CNC(=O)OCc1ccccc1)C(=O)NC(CCCCNC(=O)CNC(=O)OCc1ccccc1)C(=O)NC(CCCCNC(=O)CNC(=O)OCc1ccccc1)C(=O)O` (configuration not stated), the EC50 was over 100 µM and the IC50 is over 100 µM.

Turning to `COC(=O)C12C(=O)CC3CCC1C32C(=O)OC` (configuration not stated), the outcome was inactive.

In the case of `Cc1cc(N(CCC#N)S(C)(=O)=O)ccc1C=Nc1ccc(C(=O)NN2C(=O)/C(=C/c3ccc(N(CCC#N)CCC#N)cc3C)N=C2c2cc([N+](=O)[O-])ccc2Cl)cc1`, the EC50 was over 42.7 µM and the IC50 was over 42.7 µM.

Consider `CCCCCCCCCCCCNC(=O)c1ccc([Se][Se]c2ccc(C(=O)NCCCCCCCCCCCC)cc2)cc1`, for which the EC50 was over 7.08 µM and the IC50 was over 7.08 µM.

As for `O=c1[nH]c2c(c(=O)[nH]1)SSC2`, the EC50 is over 200 µM and the IC50 was determined as 0.631 µM.

On to `CC(C)=CCc1c(-c2ccc(OC3OC(CO)C(O)C(O)C3O)cc2O)oc2c3c(cc(O)c2c1=O)OC(C)(C)C=C3` (configuration not stated), for which the EC50 is over 11.5 µM and the IC50 was over 11.5 µM.

Turning to `C=C(C)C1CC2=C(O1)C(=O)c1cccc(O)c1C2=O` (configuration not stated), the EC50 is over 2 µM and the IC50 was found to be 0.468 µM.

As to `CCOC(=O)Nc1nc2c([N+](=O)[O-])c(Br)n(C)c2s1`, the result was inactive.

As for `CCC/C(Cl)=N\OC(=O)Nc1ccc(Br)cc1`, the result was inactive.

`Cn1c(=O)c2nc(-c3ccc(Cl)cc3)oc2n(C)c1=O`: the EC50 is over 9.33 µM and the IC50 is over 9.33 µM.

Consider `O=C(NC1CCC(CC2CCC(NC(=O)c3cc(O)c(O)c(O)c3)CC2)CC1)c1cc(O)c(O)c(O)c1` (configuration not stated), for which the EC50 was over 100 µM and the IC50 was determined as 10.5 µM.

`COc1ccc2c(c1)OCCN(C)OC2c1cccc(Cl)c1` (configuration not stated): the EC50 was over 200 µM and the IC50 was 87.1 µM.

With `Nc1[nH]n(-c2ccccc2)c(=O)c1/C=N/C(=S)NC1CCCCC1`, the EC50 was over 100 µM and the IC50 is over 100 µM.

`O=C1N[C@H]2c3c(Cl)sc(Cl)c3/C(=N/O)[C@H]2O1`: the EC50 was over 200 µM and the IC50 turned out to be 95.5 µM.

For `COC(=O)/C([Se]c1c(C)cc(C)cc1C)=C(\[Se]c1c(C)cc(C)cc1C)C(=O)OC`, the result was inactive.

`CC(=O)O/C(=C(/C#N)C(=O)O)C1C(C(=O)O)C(c2ccccc2[N+](=O)[O-])C=C(c2ccco2)N1c1ccncc1` (configuration not stated): the EC50 is over 20 µM and the IC50 was determined as 2.4 µM.

As to `Cc1nc(N)c2c(n1)C(C)N(C(=O)c1ccccc1)C2` (configuration not stated), the EC50 is over 135 µM and the concentration for half-maximal inhibition (IC50) was over 135 µM.

As for `O=C1C=CC(O)=CC1=P(c1ccccc1)(c1ccccc1)c1ccccc1`, the EC50 is over 200 µM and the IC50 amounted to 32.4 µM.

In the case of `CC1=C2[C@@H](c3ccccc3)C3C=CC2(c2ccccc23)N(C(=O)Nc2cccc3ccccc23)C1=O` (some centres not stated), the EC50 was over 5.75 µM and the IC50 was over 5.75 µM.

`Cc1ccc(-n2nc(C(OC3OC(CO)C(O)C(O)C3O)C(O)CO)c3nc4cc(C)c(C)cc4nc32)cc1` (configuration not stated): the outcome was inactive.

Regarding `ClC1c2ccccc2-c2nsnc2C1Cl` (configuration not stated), the EC50 was over 28.2 µM and the IC50 is over 28.2 µM.

With `CCCCN(CCCC)CC(N=O)c1cc(-c2ccc(Cl)c(Cl)c2)nc2c(Cl)cc(Cl)cc12` (configuration not stated), the outcome was inactive.

Turning to `Cc1c2n(c(=O)[nH]c1=O)C1OC(CO)C(N=[N+]=[N-])C1O2` (configuration not stated), the EC50 was over 200 µM and the IC50 is over 200 µM.

With `O=c1[nH]nc(NNc2ccccc2)c2nnn(C3CCCCC3)c12`, the EC50 was over 200 µM and the IC50 turned out to be 12.6 µM.
